# Laboratory results published in patent EP1304101A1, “Composition and method for use of pyridinium derivatives in cosmetic and therapeutic applications” (Torrent Pharmaceuticals Ltd, priority 2001, dated 2003).
# Target: T1, AGE-BSA (Bos taurus, UniProt P02769)
# T1 construct: Bovine serum albumin (fraction V) (BSA); from tissue
# Experiment: In-vitro AGE breaking activity by ELISA (16 weeks AGE-BSA incubated with test compound)
# Format: biochemical, bovine
# Conditions: for % Breakage: 37°C, 24 hours
# [1] = comparison in words based on Table 2
# T1 sequence (P02769 25-607): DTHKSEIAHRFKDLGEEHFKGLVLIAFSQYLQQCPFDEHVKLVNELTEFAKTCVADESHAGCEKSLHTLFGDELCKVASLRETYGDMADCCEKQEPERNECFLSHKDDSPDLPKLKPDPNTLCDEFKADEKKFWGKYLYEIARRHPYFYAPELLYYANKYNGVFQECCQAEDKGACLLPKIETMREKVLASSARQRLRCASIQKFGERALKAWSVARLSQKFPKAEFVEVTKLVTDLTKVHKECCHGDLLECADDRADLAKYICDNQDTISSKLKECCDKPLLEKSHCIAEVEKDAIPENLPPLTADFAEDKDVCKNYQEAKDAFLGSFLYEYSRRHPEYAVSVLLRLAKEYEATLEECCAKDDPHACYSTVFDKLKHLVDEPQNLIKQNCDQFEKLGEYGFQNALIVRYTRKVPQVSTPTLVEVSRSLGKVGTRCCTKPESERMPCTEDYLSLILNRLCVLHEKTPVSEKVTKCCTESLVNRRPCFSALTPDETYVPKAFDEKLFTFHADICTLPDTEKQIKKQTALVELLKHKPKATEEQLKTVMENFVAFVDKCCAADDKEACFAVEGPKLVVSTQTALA
SMILES,% Breakage (10 mM test compound) [%],also measured
"CS(=O)(=O)NNC(=O)c1cc(Br)c[n+](CC(=O)c2cccs2)c1 [Compound 53, 1-(2-thien-2'-yl-2-oxoethyl)-3-(methanesulfonyl hydrazinocarbonyl)-5-bromo pyridinium bromide]",,% Breakage (2.5 mM test compound): 29.36%
"Cc1ccc(C(=O)NNS(C)(=O)=O)c[n+]1CC(=O)c1cccs1 [Compound 57, 1-(2-thien-2'-yl-2-oxoethyl)-3-(methanesulfonyl hydrazinocarbonyl) -6-methyl pyridinium bromide]",,% Breakage (1 mM test compound): 77.69%
"Cc1ccc(C(=O)C[n+]2cccc(C(=O)NNC(=O)c3ccc[n+](CC(=O)c4ccc(C)s4)c3)c2)s1 [Compound 58, N, N'-bis [3-carbonyl-1-(2-(5-methylthien-2-yl)-2-oxoethyl)pyridinium] hydrazine dichloride]",81.95,
"CCOC(=O)C1CCCN1C(=O)C[n+]1cccc(C(=O)NNC(=O)c2ccc[n+](CC(=O)N3CCCC3C(=O)OCC)c2)c1 (stereo not shown) [Compound 59, N, N'-bis [3-carbonyl-1-(2-(2-ethoxycarbonyl pyrrolidin-1-yl)-2-oxoethyl)pyridinium] hydrazine dichloride]",20.31,
"NC(=O)c1cc(C(=O)NNC(=O)c2ccc[n+](CC(=O)c3cccs3)c2)c[n+](CC(=O)c2cccs2)c1 [Compound 60, 1-[1-(2-thien-2'-yl-2-oxoethyl)-5-aminocarbonyl-3-carbonylpyridinium]-2-[1-(2-Thien-2'-yl-2-oxoethyl)-3-carbonylpyridinium] hydrazine dichloride]",,% Breakage (1 mM test compound): 95.36%
"CCOC(=O)C1CSCN1C(=O)C[n+]1cccc(C(=O)NNS(C)(=O)=O)c1.[Cl-] (stereo not shown) [Compound 61, 1-(2-(4-carboethoxy-thiazolidin-3-yl)-2-oxoethyl) -3-(methanesulfonyl hydrazinocarbonyl) pyridinium chloride]",25.06,
"O=C(NNC(=O)c1ccc[n+](CC(=O)c2ccc(Cl)s2)c1)c1ccc[n+](CC(=O)c2ccc(Cl)s2)c1 [Compound 62, N, N'-bis [3-carbonyl-1-(2-(5-chlorothien-2-yl)-2-oxoethyl)pyridinium] hydrazine dichloride]",78.41,AGE breaking activity compared to PTB [1]: superior; potency (AGE breaking activity compared to PTB) [1]: significantly much higher
"O=C(C[n+]1ccc(C(=O)NCCOC(=O)c2ccccc2)cc1)Nc1ccccc1.[Cl-] [Compound 66, 1-(2-phenylamino-2-oxoethyl)-4-[2-(benzoyloxy)ethylaminocarbonyl] pyridinium chloride]",19.07,
"NC(=O)c1ccc[n+](CC(=O)c2cccs2)c1 [Compound 85, 3-Carbonylamino-1-(2-thien-2'-yl-2-oxoethyl)-pyridinium bromide]",3,
"CCOC(=O)C[n+]1cccc(C(=O)NCCO)c1.[Br-] [Compound 87, 1-(2-Ethoxy-2-oxoethyl)-3-((2-hydroxyethyl)aminocarbonyl) pyridinium bromide]",43,
"CCCCNC(=O)c1ccc[n+](CC(=O)Nc2ccccc2)c1.[Cl-] [Compound 94, 1-(2-Phenylamino - 2-oxoethyl) - 3 - (n-butylaminocarbonyl) pyridinium chloride]",27,
"O=C(C[n+]1cccc(C(=O)NCCO)c1)Nc1ccccc1.[Cl-] [Compound 95, 1-(2- Phenylamino - 2-oxoethyl)-3-((2-hydroxyethyl)aminocarbonyl) - pyridinium chloride]",,% Breakage (20 mM test compound): 48%
"O=C(C[n+]1ccsc1)c1ccccc1 [PTB, reference compound]",27,% Breakage (20 mM test compound): 47%
